Laboratory results reported in patent US7579468B2, “Methods of modulating neurotrophin-mediated activity” (PainCeptor Pharma Corporation, priority 2005, dated 2009).
“Also recorded” adds a separate entry of the source.

Columns and labels:
PC12 (TrkA & p75) [1] = test system: T1, PC12 (TrkA & p75); assay: 125I-NGF binding displacement in PC12 cells; design: species or system rat; details: for PC12 (TrkA & p75) Single point (% max binding) Mean: PC12 cells; for NGF binding displacement, dose-response curve: PC12 cells expressing TrkA and p75, individual experiment
T1 construct: other: Concentration 25 μM; PC12 cells; other: Concentration 50 μM; other: PC12 cells; 125I-NGF ~0.11 nM; other: PC12 cells expressing TrkA and p75; individual experiment; fused on or other part: 125I label on NGF
Method: (§1) All cells were incubated at 37° C. in 5% CO2. PC12 cells were maintained in RPMI-1640 medium supplemented with 10% fetal bovine serum (FBS). A875 human melanoma cells were maintained in DMEM with 10% FBS. HEK 293 cells were stably transfected with human TrkA plasmid (see below) and maintained in DMEM with 10% FBS and G418 (600 μg/mL) for selection.
(§2) NGF binding was evaluated using methods familiar to those who are skilled in the art. Briefly, cells expressing one or both NGF receptors (PC12: TrkA+p75; A875: p75 alone; HEK_TrkA: TrkA alone) were harvested by replacing the medium with calcium-magnesium free balanced salt (Grey's) solution and incubating at 37° C. for 15 min. For NGF binding, cells were resuspended at a concentration of 2×10^6 cells/mL in HEPES-Krebs-Ringer (HKR) buffer (10 mM HEPES; 125 mM NaCl; 4.8 mM KCl; 1.3 mM CaCl2; 1.2 mM MgSO4; 1.2 mM KH2PO4; 1 mg/ml BSA; 1 mg/ml glucose; pH 7.4) and exposed to ^125I-NGF (˜0.11 nM) in the presence or absence of varying concentrations of the compound. Non-specific binding was determined for reference by incubating ^125I-NGF with an excess of non-radioactive NGF in the absence of compound. Following a two-hour incubation period at 4° C., ^125I-NGF bound to the cells was quantified in a gamma radiation counter following separation from unbound NGF by filtration or centrifugation through glycerol (10% in HKR). Inhibition of binding was calculated as a percent of the specific binding (calculated as the differential between ^125I-NGF binding in the absence and presence of an excess of non-radioactive NGF without compound). Dose-response inhibition curves were typically generated with seven concentrations of a given compound, with three replicates for each concentration. For most compounds, multiple dose-response curves were generated.

Mice = assay: Writhing Test (acetic acid abdominal contraction test); type: in vivo, mouse; details: 100 mg/kg i.p., 30 minutes following acetic acid, vehicle 57±1
Method: The acetic acid abdominal contraction test (Martinez et al., Pain 1999; 81: 179) was used to determine the efficacy of different compounds in a model of acute visceral chemical nociception. […] Compound or vehicle was administered (i.p. or s.c.) 15-45 minutes prior to the acetic acid injection. Each episode of writhing is characterized by a lengthwise stretching of the torso with a concomitant arching of the back.
Statistical analysis was performed using Prism™ 4.01 software package (GraphPad, San Diego, Calif., USA). The difference in response levels between treatment groups and control vehicle group was analyzed using an ANOVA followed by Bonferroni's method for post-hoc pair-wise comparisons. A p value <0.05 was considered to be significant.

PC12 cells = assay: NGF-induced neurite outgrowth in PC12 cells; type: cell-based, rat; details: 4 days of exposure to NGF
Method: This assay was run as a further functional marker of NGF antagonism and takes advantage of the differentiation of PC12 cells (neurite outgrowth) induced by NGF. Cultures of PC12 cells were grown on Terasaki plates pre-coated with poly-D-lysine. Cells were exposed to NGF (1-50 (preferably 5) ng/ml) to induce neurite outgrowth as described elsewhere [L A Greene & A S Tischler, Establishment of a noradrenergic clonal line of rat adrenal pheochromocytoma cells which respond to nerve growth factor, Proc Natl Acad Sci USA. 1976 July; 73(7): 2424-2428]. In addition to NGF, cells were exposed to varying concentration of the compounds or vehicle. Following 4 days of exposure to NGF in the presence or absence of compound, neurite outgrowth was quantified. A neurite was scored if its caliber from origin to terminal was approximately the same and the length was equal to or greater than 1.5 the cell body diameter. The number of neurite bearing cells per total number of viable cells was calculated for each condition; the number of cells with neurites in the presence of NGF (without compound exposure) was considered to represent maximal (100%) outgrowth, to which the inhibitory effect of compounds of the invention on NGF-induced outgrowth was compared.

[2] = test system: HEK_TrkA: TrkA alone (human TrkA); assay: 125I-NGF binding displacement in HEK_TrkA cells; details: individual experiment
Method: as §1
Expression of human TrkA in HEK cells was achieved by transfecting the cells with the TrkA expression vector using Lipofectamine (Invitrogen) reagent. HEK cells were plated in 100 mm Petri dishes at a concentration of 10^6 cells per dish. The next day, a solution of DNA diluted in 1 mL OptiMEM (Invitrogen) per dish was prepared and incubated for 15 min at room temperature. […]
NGF binding was evaluated using methods familiar to those who are skilled in the art. […] Non-specific binding was determined for reference by incubating ^125I-NGF with an excess of non-radioactive NGF in the absence of compound. Following a two-hour incubation period at 4° C., ^125I-NGF bound to the cells was quantified in a gamma radiation counter following separation from unbound NGF by filtration or centrifugation through glycerol (10% in HKR). Inhibition of binding was calculated as a percent of the specific binding (calculated as the differential between ^125I-NGF binding in the absence and presence of an excess of non-radioactive NGF without compound). […]

PC12 (TrkA & p75) [3] = test system: T2, PC12 (TrkA & p75); assay: 125I-NGF binding displacement in PC12 cells; design: species or system rat; details: PC12, A875 and HEK_TrkA cells taken together
T2 construct: other: PC12, A875 an; fused on or other part: 125I label on NGF
Method: as §1, §2

Male Sprague-Dawley rats = assay: Spared Nerve Injury (SNI) model of neuropathic pain; type: in vivo, rat; details: Von Frey filaments, 90 min post-treatment, Compound 11 3 and 10 mg/kg i.p., Compound 107 20 mg/kg i.p.
From the text: The Spared Nerve Injury (SNI) model (Decosterd et al., Pain 2000; 87: 149) was used to induce chronic neuropathic pain. Male Sprague-Dawley rats were anesthetized with isoflurane, and two of the three terminal branches of the sciatic nerve (tibial and common peroneal nerves) were transected, leaving the remaining sural nerve intact. Animals develop thermal and mechanical hyperalgesia and allodynia, as well as spontaneous pain or dysesthesia that last month after the nerve injury.
Mechanical allodynia testing: Pre- and post-injury baselines as well as post-treatment values (vehicle or compound-treated animals) for mechanical allodynia were evaluated using Von Frey filaments (Stoelting, Wood Dale, Ill., USA) with varying stiffness. […] The mean and standard error of the mean (SEM) were determined for each paw in each treatment group (ipsilateral/injured paw and contralateral/non-injured paw). […] Effects of compounds were evaluated two weeks after the injury. Compound or vehicle was administered (i.p. or s.c.) and effects on mechanical allodynia were measured at different time points after dosing (e.g., 30, 60 and 90 min.).
Data analysis: Statistical analyses were conducted using Prism™ 4.01 (GraphPad, San Diego, Calif., USA). Mechanical hypersensitivity of the injured paw was determined by comparing contralateral to ipsilateral paw values within the vehicle group at each time point. […]

A875: p75 alone = assay: 125I-NGF binding displacement in A875 cells; design: species or system human; details: A875 cells expressing p75; individual experiment
Method: as §1, §2

Compound: NNC(=O)NN1C(=O)c2cc(S(=O)(=O)[O-])cc3c(N)c(S(=O)(=O)[O-])cc(c23)C1=O.[K+].[K+] [Compound 52, 6-Amino-1,3-dioxo-2-amino-ureido-2,3-dihydro-1H-benzo[de]isoquinoline-5,8-disulfonic acid-di-potassium salt]
- PC12 (TrkA & p75) Single point (% max binding) Mean (PC12 (TrkA & p75) [1]; Concentration 50 μM): * (* >50)

Compound: O=C(O)CCCN1C(=O)c2cccc3cc([N+](=O)[O-])cc(c23)C1=O [Compound 63, 4-(5-Nitro-1,3-dioxo-1H,3H-benzo[de]isoquinolin-2-yl)-butyric acid]
- Number of abdominal contractions (writhing) (Mice): 9±3

Compound: O=C(O)CCCN1C(=O)c2cc(Br)cc3cc([N+](=O)[O-])cc(c23)C1=O [Compound 89, 4-(5-Bromo-8-nitro-1,3-dioxo-1H,3H-benzo[de]isoquinolin-2-yl)-butyric acid]
- PC12 (TrkA & p75) Single point (% max binding) Mean (PC12 (TrkA & p75) [1]; Concentration 50 μM): ** (30 < ** <50)

Compound: NC(=O)c1cc2c3c(cccc3c1)C(=O)N(CCCC(=O)O)C2=O [Compound 95, 4-(5-Carbamoyl-1,3-dioxo-1H,3H-benzo[de]isoquinolin-2-yl)-butyric acid]
- Inhibition of NGF-induced neurite outgrowth (PC12 cells): effectively inhibits neurite outgrowth induced by NGF

Compound: O=C(O)CCCN1C(=O)c2cccc3c(C(=O)c4ccccc4)ccc(c23)C1=O [Compound 99, 4-(6-Benzoyl-1,3-dioxo-1H,3H-benzo[de]isoquinolin-2-yl)-butyric acid]
- PC12 (TrkA & p75) Single point (% max binding) Mean (PC12 (TrkA & p75) [1]; Concentration 25 μM): *** (* < *** <30)

Compound: O=C(O)CCCN1C(=O)c2cccc3c(C(=O)O)ccc(c23)C1=O [Compound 100, 2-(3-Carboxy-propyl)-1,3-dioxo-2,3-dihydro-1H-benzo[de]isoquinoline-6-carboxylic acid]
- PC12 (TrkA & p75) Single point (% max binding) Mean (PC12 (TrkA & p75) [1]; Concentration 25 μM): *** (* < *** <30)

Compound: O=C1Nc2ccc([N+](=O)[O-])c3cccc1c23 [Compound 103, 6-Nitro-1H-benzo[cd]indol-2-one]
- PC12 (TrkA & p75) Single point (% max binding) Mean (PC12 (TrkA & p75) [1]; Concentration 25 μM): * (* >50)

Compound: O=C(O)CCCN1C(=O)c2cccc3c(Cl)ccc(c23)C1=O [Compound 104, 4-(6-Chloro-1,3-dioxo-1H,3H-benzo[de]isoquinolin-2-yl)-butyric acid]
- PC12 (TrkA & p75) Single point (% max binding) Mean (PC12 (TrkA & p75) [1]; Concentration 25 μM): ** (30 < ** <50)

Compound: CC(=O)Nc1cc2c3c(cc(NC(C)=O)cc3c1)C(=O)N(CCCS(=O)(=O)O)C2=O [Compound 107, 3-(5,8-Bis-acetylamino-1,3-dioxo-1H,3H-benzo[de]isoquinolin-2-yl)-propane-1-sulfonic acid]
- NGF binding displacement, dose-response curve [2]: effectively blocks NGF binding to cells expressing TrkA
- Block of NGF binding to TrkA and/or p75 (summary of FIGS. 1B, 2A, 2B, 4A, 4B, 6A, 6B, 7A, 8A, 8B) (PC12 (TrkA & p75) [3]): effectively block NGF binding to TrkA and/or p75
- NGF binding displacement, dose-response curve (PC12 (TrkA & p75) [1]): effectively blocks NGF binding to cells expressing TrkA and p75
- Effect on mechanical allodynia in the SNI model (Male Sprague-Dawley rats): significant dose-dependent reversal of the mechanical allodynia; also recorded: significant antinociceptive effects
- NGF binding displacement, dose-response curve (A875: p75 alone): effectively blocks NGF binding to cells expressing p75
- Inhibition of NGF-induced neurite outgrowth (PC12 cells): effectively inhibits neurite outgrowth induced by NGF

Compound: CN(C)S(=O)(=O)c1ccc2c3c(cccc13)C(=O)N(CCCC(=O)O)C2=O [Compound 112, 4-(6-Dimethylsulfamoyl-1,3-dioxo-1H,3H-benzo[de]isoquinolin-2-yl)-butyric acid]
- PC12 (TrkA & p75) Single point (% max binding) Mean (PC12 (TrkA & p75) [1]; Concentration 50 μM): *** (* < *** <30)

Compound: O=C(O)CCCN1C(=O)c2cccc3c(S(=O)(=O)N4CCOCC4)ccc(c23)C1=O [Compound 113, 4-[6-(Morpholine-4-sulfonyl)-1,3-dioxo-1H,3H-benzo[de]isoquinolin-2-yl]-butyric acid]
- PC12 (TrkA & p75) Single point (% max binding) Mean (PC12 (TrkA & p75) [1]; Concentration 50 μM): ** (30 < ** <50)

Compound: CN(C)S(=O)(=O)c1cc2c3c(cccc3c1)C(=O)N(CCCC(=O)O)C2=O [Compound 114, 4-(5-Dimethylsulfamoyl-1,3-dioxo-1H,3H-benzo[de]isoquinolin-2-yl)-butyric acid]
- PC12 (TrkA & p75) Single point (% max binding) Mean (PC12 (TrkA & p75) [1]; Concentration 50 μM): ** (30 < ** <50)

Compound: N#Cc1cc2c3c(cccc3c1)C(=O)N(CCCC(=O)O)C2=O [Compound 124, 4-(5-Cyano-1,3-dioxo-1H,3H-benzo[de]isoquinolin-2-yl)-butyric acid]
- Block of NGF binding to TrkA and/or p75 (summary of FIGS. 1B, 2A, 2B, 4A, 4B, 6A, 6B, 7A, 8A, 8B) (PC12 (TrkA & p75) [3]): effectively block NGF binding to TrkA and/or p75
- NGF binding displacement, dose-response curve (PC12 (TrkA & p75) [1]): effectively blocks NGF binding to cells expressing TrkA and p75
- NGF binding displacement, dose-response curve (A875: p75 alone): effectively blocks NGF binding to cells expressing p75
- Inhibition of NGF-induced neurite outgrowth (PC12 cells): effectively inhibit neurite outgrowth induced by NGF
